Key:
[1] = tested on: A431 cells; assay: Growth of A431 cells (SRB); type: cell-based; conditions: Homo sapiens, A-431, 72 h, 2% calf serum, 3 days
Description: The following assay measures growth rates for A43 1 cells.
2% calf serum/DMEM+2 mM glutamine, Pen/Strep
2. Dilute cells in growth medium to 60,000 cell/mL. Transfer 100 μL of cells to each well in a 96-well flat bottom plate to give 6000 cells/well.
1. In a 96-well round bottom plate, add 120 μL of growth medium containing 2×final % DMSO found in highest screening concentration of compound to columns 1 to 11. For example, if the highest concentration is […], ad this is made from a 100 mM stock, 1×DMSO is 0.1%, so 2×DMSO is 0.2%. This plate is used to titrate out the compound, 4 rows per compound.
2. In a sterile 15 mL tube, make a 2×solution of the highest screening concentration of compound in growth medium plus 2×DMSO. 1 mL per cell line is needed. The starting concentration of the compound is usually 100 μM but this concentration may vary depending upon the solubility of the compound.
3. Transfer 240 μL of the 2×starting compound solution to qudruplicate wells in column 12 of the 96-well round bottom plate. Do 1:2 serial dilutions across the plate from right to left by transferring […] from column 12 to column 11, column 11 to 10 and so on through column 2. […]
6. Read plates on Dynatech ELISA Plate REader at 570 nm with reference at 630 nm. […]

[2] = tested on: SKOV3 cells; assay: Growth of SKOV3 cells (SRB); type: cell-based; conditions: Homo sapiens, SK-OV-3, 2%
Text: The assay is the same as the assay set forth in EXAMPLE 10, except that SKOV3 cells (ATCC HTB77) are used instead of A431 cells.
Compound of formula VI inhibited the growth rate of SKOV3 cells as illustrated in Table 10.

[3] = tested on: C6 cells; assay: Growth of C6 cells (SRB); type: cell-based; conditions: Rattus norvegicus, 2%
Text: The assay is the same as the assay set forth in EXAMPLE 10, except that C6 cells (ATCC 107) are used instead of A431 cells.
Compound of formula VI inhibited the growth rate of C6 cells as illustrated in Table 11.

[4] = tested on: 3T3EGFR; assay: BrdU incorporation assay, 3T3EGFR, EGF; type: cell-based
[5] = molecular target: EGFR (Homo sapiens, UniProt P00533); assay: Biochemical EGFR assay (ELISA, A431 cell lysate); design: Add 7 μg A431 cell lysate per well (EGFR source); endogenous in cells; host or cells: A431 cell lysate, captured on 05-101 anti-EGFR antibody; conditions: A431 cell lysate as EGFR source
Text: The following protocol describes the procedures used to analyze protein tyrosine kinase activity on the EGFR in an Elisa. The procedure also describes the protocol for the initial screening of drugs for inhibition or activation of protein tyrosine kinase activity.
A431 cells are available from a variety of commercial sources and may be used lysed using conventional methods known to those skilled in the art or as described for lysis of the 3T3 cells in the EGF cellular assay described herein. −80° C., 1 mL aliquots
1. Coat Corning 96-well elisa plates with 0.5 μg per well 05-101 antibody. Bring final volume to 100 μL per well with PBS. Coat plates overnight at 4° C.
5. Add 7 μg A431 cell lysate per well (EGFR source). Add PBS to final volume of 100 μL per well. Incubate 30 minutes while shaking.
7. At this point, drugs or extracts are added to the wells. Dilute drugs/extracts 1:100 (unless specified otherwise) in TBS+10% DMSO in 96-well polypropylene plates. Add 120 μL TBS to ELISA plate containing captured EGFR. […] Incubate plate 30 minutes while shaking.
8. […] (150 μL final volume in well with 3 μM ATP/5 mM MnCl2 final concentration in well.) Incubate 5 minutes while shaking vigorously.
9. […]
17. Read assay on Dynatech MR7000 elisa reader.
The IC50 values measured in the above assay for the compound of formula VI are depicted in Table 2: […]

Sequence of EGFR (P00533 25-1210): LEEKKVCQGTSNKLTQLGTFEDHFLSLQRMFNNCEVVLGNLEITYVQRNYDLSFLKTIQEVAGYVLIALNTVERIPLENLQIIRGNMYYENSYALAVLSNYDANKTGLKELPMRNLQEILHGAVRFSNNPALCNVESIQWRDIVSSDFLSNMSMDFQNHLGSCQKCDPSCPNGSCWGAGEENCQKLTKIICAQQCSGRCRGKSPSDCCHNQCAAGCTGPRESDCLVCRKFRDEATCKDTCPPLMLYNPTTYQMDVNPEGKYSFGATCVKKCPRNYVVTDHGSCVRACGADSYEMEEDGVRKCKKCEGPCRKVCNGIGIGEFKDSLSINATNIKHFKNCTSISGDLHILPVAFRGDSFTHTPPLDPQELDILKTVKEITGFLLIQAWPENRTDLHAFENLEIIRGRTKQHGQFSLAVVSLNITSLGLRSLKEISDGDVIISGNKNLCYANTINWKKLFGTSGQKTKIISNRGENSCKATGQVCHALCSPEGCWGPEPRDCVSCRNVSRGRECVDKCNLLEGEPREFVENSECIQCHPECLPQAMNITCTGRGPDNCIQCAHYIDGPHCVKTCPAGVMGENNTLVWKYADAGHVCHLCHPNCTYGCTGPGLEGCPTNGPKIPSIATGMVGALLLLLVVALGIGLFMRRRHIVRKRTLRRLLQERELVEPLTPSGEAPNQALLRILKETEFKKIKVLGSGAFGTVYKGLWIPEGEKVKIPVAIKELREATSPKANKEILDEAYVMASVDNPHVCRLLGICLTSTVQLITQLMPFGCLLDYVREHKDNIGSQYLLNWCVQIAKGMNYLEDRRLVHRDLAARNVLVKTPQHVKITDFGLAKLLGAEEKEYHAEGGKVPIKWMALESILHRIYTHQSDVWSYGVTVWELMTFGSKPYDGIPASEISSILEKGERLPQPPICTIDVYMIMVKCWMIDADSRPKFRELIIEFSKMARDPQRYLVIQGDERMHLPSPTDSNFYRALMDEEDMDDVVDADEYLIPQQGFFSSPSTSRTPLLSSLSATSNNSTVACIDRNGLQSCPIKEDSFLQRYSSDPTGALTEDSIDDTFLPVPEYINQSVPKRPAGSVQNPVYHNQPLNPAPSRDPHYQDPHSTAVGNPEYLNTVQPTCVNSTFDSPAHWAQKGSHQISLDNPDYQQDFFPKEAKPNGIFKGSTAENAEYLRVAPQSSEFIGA

IC50 [1]: 0.712 µM | IC50 [2]: 1.08 µM | IC50 [5]: > 50 µM
SMILES: Cc1cc(/C=C2/C(=O)Nc3ccccc32)c(C)c2c1[nH]c1ccccc12 [VI]
IC50 [3]: 1.55 µM | IC50 [4]: 7.03 µM
